The target of one test is T1, AmGH33A (Akkermansia muciniphila, UniProt B2UPI5).
T1 construct: gene Amuc_0625; mature peptide lacking the signal peptide
T1 sequence (B2UPI5 39-419): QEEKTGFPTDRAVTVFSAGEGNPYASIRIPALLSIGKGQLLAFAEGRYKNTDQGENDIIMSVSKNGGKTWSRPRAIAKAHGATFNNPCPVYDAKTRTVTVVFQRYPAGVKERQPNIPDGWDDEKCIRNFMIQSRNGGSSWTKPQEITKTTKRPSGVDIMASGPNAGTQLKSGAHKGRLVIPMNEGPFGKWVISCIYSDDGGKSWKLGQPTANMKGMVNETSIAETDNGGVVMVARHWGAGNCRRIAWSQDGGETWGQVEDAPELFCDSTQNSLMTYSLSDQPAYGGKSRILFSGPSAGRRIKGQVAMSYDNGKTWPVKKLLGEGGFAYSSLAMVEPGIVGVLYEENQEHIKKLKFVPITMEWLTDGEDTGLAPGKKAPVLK
Put plainly: inhibition of 4MU-Neu5Ac hydrolysis, fluorescence. The format is biochemical.

Another test deals with T2, AmGH33B (Akkermansia muciniphila, UniProt B2UN42).
T2 construct: gene Amuc_1835; mature peptide lacking the signal peptide
T2 sequence (B2UN42 19-674): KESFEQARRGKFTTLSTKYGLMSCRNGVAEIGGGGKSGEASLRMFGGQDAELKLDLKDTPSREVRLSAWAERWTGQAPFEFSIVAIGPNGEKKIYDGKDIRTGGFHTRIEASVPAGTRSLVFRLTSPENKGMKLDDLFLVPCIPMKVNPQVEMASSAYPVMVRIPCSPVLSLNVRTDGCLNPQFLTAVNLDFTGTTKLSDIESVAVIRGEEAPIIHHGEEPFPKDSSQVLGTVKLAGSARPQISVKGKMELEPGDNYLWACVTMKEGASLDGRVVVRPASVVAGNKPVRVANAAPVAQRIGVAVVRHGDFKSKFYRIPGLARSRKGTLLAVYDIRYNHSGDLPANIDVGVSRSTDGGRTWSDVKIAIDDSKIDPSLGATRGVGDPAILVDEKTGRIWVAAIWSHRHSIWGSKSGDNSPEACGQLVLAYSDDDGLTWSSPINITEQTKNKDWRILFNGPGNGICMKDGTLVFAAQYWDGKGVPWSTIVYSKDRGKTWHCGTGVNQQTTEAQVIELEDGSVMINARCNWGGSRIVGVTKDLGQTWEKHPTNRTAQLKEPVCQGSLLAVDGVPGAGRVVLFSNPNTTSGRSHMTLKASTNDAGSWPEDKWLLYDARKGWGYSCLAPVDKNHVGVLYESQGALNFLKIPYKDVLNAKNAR
Nature of the test: inhibition of 4MU-Neu5Ac hydrolysis, fluorescence. The format is biochemical.

For test [1], the target named is T3, AmGH181 (Akkermansia muciniphila, UniProt B2ULI1).
T3 sequence (B2ULI1 23-595): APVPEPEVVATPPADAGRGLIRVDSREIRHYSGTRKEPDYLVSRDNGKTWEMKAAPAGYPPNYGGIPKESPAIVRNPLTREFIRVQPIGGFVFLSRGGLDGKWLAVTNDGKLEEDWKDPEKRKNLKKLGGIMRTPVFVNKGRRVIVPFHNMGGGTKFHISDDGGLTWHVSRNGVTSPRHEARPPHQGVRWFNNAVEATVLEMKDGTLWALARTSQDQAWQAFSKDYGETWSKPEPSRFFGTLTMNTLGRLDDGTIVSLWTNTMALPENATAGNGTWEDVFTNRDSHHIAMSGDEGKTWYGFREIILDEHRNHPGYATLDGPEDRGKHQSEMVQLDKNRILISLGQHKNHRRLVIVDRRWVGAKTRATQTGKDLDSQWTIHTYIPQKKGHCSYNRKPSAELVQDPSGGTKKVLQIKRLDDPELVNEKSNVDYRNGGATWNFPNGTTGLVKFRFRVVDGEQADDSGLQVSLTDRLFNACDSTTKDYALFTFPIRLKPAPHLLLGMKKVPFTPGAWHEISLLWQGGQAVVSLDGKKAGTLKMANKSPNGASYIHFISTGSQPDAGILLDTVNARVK
Nature of the test: X-ray crystal structure; also inhibition of 4MU-Neu5Ac hydrolysis. In kind it is biochemical. Details: gene Amuc_1547; mature peptide lacking the signal peptide. The source says:
X-ray crystal structure; also inhibition of 4MU-Neu5Ac hydrolysis on AmGH181 | three structures of AmGH181: in ligand free form, bound with the transition-state inhibitor DANA

The target in test [2] is T3, AmGH181. Details: gene Amuc_1547.

SMILES strings stand for the structures.

What is called IC50 is the midpoint of a concentration-inhibition curve.

As for `CC(=O)N[C@H]1[C@H]([C@H](O)[C@H](O)CO)OC(C(=O)O)=C[C@@H]1O` [DANA, N-Acetyl-2,3-dehydro-2-deoxyneuraminic acid], the IC50 on AmGH33A, at AmGH33B and on AmGH181 [1] was less than 200 µM throughout.

As to `CC(=O)N[C@H]1C(O)O[C@H](CO)[C@H](O)[C@@H]1O[C@@H]1O[C@H](CO)[C@H](O)[C@H](O)[C@H]1O` (stereo partly shown) [GNB, Galacto-N-biose], the “X-ray crystal structure (ternary with DANA)” value at AmGH181 [2] is “bound to both the T-antigen disaccharide (GNB) and DANA, which provides a mimic for a transition state-like substrate complex”.

Values taken from article PMC10067855, “Sialidases and fucosidases of Akkermansia muciniphila are crucial for growth on mucin and nutrient sharing with mucus-associated gut bacteria” (Nature Communications, 2023).
